Test system: weeds
Test: Glasshouse weed control by HST/HPPD (mesotrione) mixtures, pre-emergence
Type: in vivo
Conditions: for % Damage at 14 DAA, 1 g ai ha^−1 mesotrione / % Damage at 14 DAA, no-mesotrione: N = 3; for colby: Colby synergy score
Procedure: Weed seeds are planted out in trays containing suitable soil (for example 50% peat, 50% John Innes soil no 3) and grown in the glass house conditions under 24-27° C. day; 18-21° C. night and approximately a 14 h (or longer in UK summer) photoperiod. Humidity is ˜65% and light levels up to 2000 μmol/m^2 at bench level. Trays are sprayed with test chemicals dissolved in water with 0.2-0.25% X-77 surfactant and sprayed from a boom on a suitable track sprayer moving at about 2 mph in a suitable track sprayer (for example a DeVries spray chamber with the nozzle about 2 inches from the plant tops). Spray volume is suitably 500-1000 l/ha. Sprays are carried out both pre-emergence and over small plants at about 7-12 d post-emergence
Plants are assessed 14 DAT and herbicidal damage is scored on a scale from 0 to 100%. The HST inhibitor compound 2.30 (designated compound A in table 16 and 17), haloxydine (compound 1.1) and compound 2.13 (designated compound AE in tables 16 and 17) are sprayed at rates between 0 and 500 g/ha.

[1] = IPOHE, 16 g/ha + mesotrione 1 g ai/ha
[2] = IPOHE, 31 g/ha + mesotrione 1 g ai/ha
[3] = IPOHE, 63 g/ha + mesotrione 1 g ai/ha
[4] = IPOHE, 125 g/ha + mesotrione 1 g ai/ha
[5] = IPOHE, 250 g/ha + mesotrione 1 g ai/ha
[6] = IPOHE, 500 g/ha + mesotrione 1 g ai/ha
[7] = SETFA, 16 g/ha + mesotrione 1 g ai/ha
[8] = SETFA, 31 g/ha + mesotrione 1 g ai/ha
[9] = SETFA, 63 g/ha + mesotrione 1 g ai/ha
[10] = SETFA, 125 g/ha + mesotrione 1 g ai/ha
[11] = SETFA, 250 g/ha + mesotrione 1 g ai/ha
[12] = SETFA, 500 g/ha + mesotrione 1 g ai/ha
[13] = SOLNI, 16 g/ha + mesotrione 1 g ai/ha
[14] = SOLNI, 31 g/ha + mesotrione 1 g ai/ha
[15] = SOLNI, 63 g/ha + mesotrione 1 g ai/ha
[16] = SOLNI, 125 g/ha + mesotrione 1 g ai/ha
[17] = SOLNI, 250 g/ha + mesotrione 1 g ai/ha
[18] = SOLNI, 500 g/ha + mesotrione 1 g ai/ha

CC(C)C(=O)Oc1c(-c2c(F)ccc(Br)c2Cl)c(=O)n(CC(F)F)c2nccnc12 [Compound 2.30]
% Damage at 14 DAA, 1 g ai ha^−1 mesotrione (ECHCG, 500 g/ha + mesotrione 1 g ai/ha): 27% | % Damage at 14 DAA, no-mesotrione (ECHCG, 500 g/ha): 18% | colby [1]: 0% | % Damage at 14 DAA, 1 g ai ha^−1 mesotrione [1]: 0% | % Damage at 14 DAA, no-mesotrione (IPOHE, 16 g/ha): 0% | colby [2]: 0% | % Damage at 14 DAA, 1 g ai ha^−1 mesotrione [2]: 0% | % Damage at 14 DAA, no-mesotrione (IPOHE, 31 g/ha): 0% | colby [3]: 0% | % Damage at 14 DAA, 1 g ai ha^−1 mesotrione [3]: 0% | % Damage at 14 DAA, no-mesotrione (IPOHE, 63 g/ha): 0% | colby [4]: 0% | % Damage at 14 DAA, 1 g ai ha^−1 mesotrione [4]: 0% | % Damage at 14 DAA, no-mesotrione (IPOHE, 125 g/ha): 0% | colby [5]: −2% | % Damage at 14 DAA, 1 g ai ha^−1 mesotrione [5]: 0% | % Damage at 14 DAA, no-mesotrione (IPOHE, 250 g/ha): 2% | colby [6]: 13% | % Damage at 14 DAA, 1 g ai ha^−1 mesotrione [6]: 17% | % Damage at 14 DAA, no-mesotrione (IPOHE, 500 g/ha): 3% | colby [7]: 0% | % Damage at 14 DAA, 1 g ai ha^−1 mesotrione [7]: 0% | % Damage at 14 DAA, no-mesotrione (SETFA, 16 g/ha): 0% | colby [8]: 0% | % Damage at 14 DAA, 1 g ai ha^−1 mesotrione [8]: 0% | % Damage at 14 DAA, no-mesotrione (SETFA, 31 g/ha): 0% | colby [9]: 0% | % Damage at 14 DAA, 1 g ai ha^−1 mesotrione [9]: 0% | % Damage at 14 DAA, no-mesotrione (SETFA, 63 g/ha): 0% | colby [10]: −2% | % Damage at 14 DAA, 1 g ai ha^−1 mesotrione [10]: 0% | % Damage at 14 DAA, no-mesotrione (SETFA, 125 g/ha): 2% | colby [11]: 3% | % Damage at 14 DAA, 1 g ai ha^−1 mesotrione [11]: 7% | % Damage at 14 DAA, no-mesotrione (SETFA, 250 g/ha): 3% | colby [12]: 10% | % Damage at 14 DAA, 1 g ai ha^−1 mesotrione [12]: 32% | % Damage at 14 DAA, no-mesotrione (SETFA, 500 g/ha): 22% | colby [13]: −17% | % Damage at 14 DAA, 1 g ai ha^−1 mesotrione [13]: 0% | % Damage at 14 DAA, no-mesotrione (SOLNI, 16 g/ha): 0% | colby [14]: −10% | % Damage at 14 DAA, 1 g ai ha^−1 mesotrione [14]: 7% | % Damage at 14 DAA, no-mesotrione (SOLNI, 31 g/ha): 0% | colby [15]: −13% | % Damage at 14 DAA, 1 g ai ha^−1 mesotrione [15]: 3% | % Damage at 14 DAA, no-mesotrione (SOLNI, 63 g/ha): 0% | colby [16]: −11% | % Damage at 14 DAA, 1 g ai ha^−1 mesotrione [16]: 8% | % Damage at 14 DAA, no-mesotrione (SOLNI, 125 g/ha): 2% | colby [17]: 11% | % Damage at 14 DAA, 1 g ai ha^−1 mesotrione [17]: 30% | % Damage at 14 DAA, no-mesotrione (SOLNI, 250 g/ha): 3% | colby [18]: 21% | % Damage at 14 DAA, 1 g ai ha^−1 mesotrione [18]: 75% | % Damage at 14 DAA, no-mesotrione (SOLNI, 500 g/ha): 45%

— patent publication US20110173718A1, “HERBICIDE TOLERANT PLANTS” (SYNGENTA CROP PROTECTION, INC., priority 2008, published 2011)
